Data on one compound can be found in paper PMC6501426 (Clinical Epigenetics, 2019).

In one assay the target is T1, human DNMT1 (Homo sapiens, UniProt P26358).
T1 construct: His; made in house
Kind of assay: DNMT1 assay (radiolabeled SAM, Flashplate). The assay is classed as biochemical. As for the experimental part:
His-DNMT1 (182 kDa, human) was cloned, expressed, and purified as described by Lee et al.. The DNMT1 assay was performed according to Gros et al.. Briefly, the DNMT1 enzymatic assay is based on the use of radiolabeled SAM, and the methylation occurs in homogeneous phase in 384-well microplates. The reaction is performed with DNMT1 at the final concentration of 90 nM in a total volume of 10 μL including also the chemical compound to be tested at the desired concentration, 1.25 μM of SAM//[methyl-^3H] SAM (3TBq/mmol) mix in a ratio of 3:1 and 0.3 μM of biotinylated DNA duplex. DNMT1, as “maintenance” methyltransferase, requires hemimethylated DNA for the reaction. After 2 h incubation at 37 °C, 8 μL of the reaction’s solution is transferred into a streptavidin 96-well scintillant coated Flashplate^TM containing 190 μL of […] in 50 mM Tris-HCl (pH 7.4). The Flashplate^TM is then agitated at room temperature for 1 h and washed. The plate is read with TopCount (PerkinElmer, Villebon-sur-Yvette, France). The greater the DNMT1 inhibition, the lower will be the scintillation signal correlated to the incorporation of the tritiated methyl groups. In this assay, the negative and positive controls were defined as wells without enzyme and wells without any compound but just DMSO, respectively.

For assay [1], the system named is E-cadherin protein in PC-3 cells. Kind of assay: Western blot of E-cadherin in PC-3. The assay is classed as cell-based, human. The note with it: 1 μM, 24 h. The source says: Cells were lysed in Laemmli buffer; subsequently, the proteins were resolved by sodium dodecyl sulfate-polyacrylamide gel electrophoresis and transferred to a 0.45-μm nitrocellulose membrane (Bio-Rad Laboratories, Hercules, CA). The following primary antibodies were used for immunoblotting: α-E-cadherin (BD Transduction Laboratories, Franklin Lakes, NJ), α-MMP2 (Abcam), α-DNMT3a (Santa Cruz Biotechnologies, Dallas, TX), and α-GAPDH (Millipore Corp., Bedford, MA), used as a loading control. The immune complexes were detected with horseradish peroxidase-conjugated species-specific secondary antiserum (Bio-Rad Laboratories, Milan, Italy) then by enhanced chemiluminescence reaction (Bio-Rad Laboratories, Milan, Italy). Densitometric analysis of protein expression was performed by using the Fiji ImageJ image processing package.
Fig. 8 Effects of MC3353 on E-cadherin and MMP2 protein expression levels in PC-3 cancer cells. Cells were treated with vehicle (DMSO) used as control (CTR) or MC3353 for 24 h. a E-cadherin and MMP2 protein detection by western blot. GAPDH was used as a loading control. Blots are representative of three independent experiments. b Densitometric analysis of E-cadherin and MMP2 protein expression. Significance is represented as *p < 0.05 related to the control groups. Data were obtained from three independent experiments and expressed as mean ± SEM

Assay [2] deals with PBMCs (non-proliferating, healthy donors). The assay can be described thus: Cell viability, trypan blue exclusion. Particulars: Homo sapiens, PBMC, 48 h of treatment, read-out: IC50 ± SD, cell viability, PBMCs. The class given is cell-based. As to the method: (§1) Peripheral blood mononuclear cells (PBMCs) from healthy donors were isolated as previously described. Freshly isolated PBMCs were either cultured and treated at 1.10^6 cells/mL (non-proliferating PBMCs) or stimulated with phytohaemoagglutinin (PHA) and interleukin (IL)-2 (called PHA_PBMCs) to induce blastogenesis in T lymphocytes before treatments as previously described. Briefly, freshly isolated PBMCs were seeded at a concentration of 2.10^6 cells/mL in RMPI 1640 supplemented with 1% antibiotic-antimycotic (Lonza, Verviers, Belgium) and 10% human AB serum (Corning, Fisher scientific, Merelbeke, Belgium). After overnight incubation, floating lymphoid cells were collected and seeded at 1.10^6 cells/mL in RMPI 1640 supplemented with 1% antibiotic-antimycotic, 5% FBS, 10% human AB serum, 1 μg/mL PHA (Gentaur, Kampenhout, Belgium), 50 U/mL IL-2 (Roche, Prophac, Luxembourg City, Luxembourg), 1% non-essential amino acids (Invitrogen, Luxembourg), 1% HEPES (Invitrogen, Luxembourg), 1% sodium pyruvate (Invitrogen, Luxembourg), and 0.1% β-mercaptoethanol (Invitrogen, Luxembourg). After 72 h, the cells were seeded at 1.10^6 cells/mL in the same mitogenic growth medium described just above and treated with test compounds.
(§2) Proliferation and viability of U-937, KG-1, RAJI, PC-3, MDA-MB-231, RPMI1788, PBMCs, and PHA_PBMCs were assessed by trypan blue exclusion assays at the indicated time points. Nuclear morphology changes associated with apoptosis and necrosis were evaluated by fluorescence microscopy after Hoechst and propidium iodide (PI) staining as previously described.
(§3) IC50 values of compounds against cellular viability were determined by using nonlinear regression fitting curves with GraphPad Prism 8 or CalcuSyn software The t test used for statistical analyses was performed with GraphPad Prism 8. All the tests were one-tailed, and a p value < 0.05 was considered statistically significant.

Assay [3] deals with PHA_PBMCs (phytohemagglutinin-stimulated PBMCs). Kind of assay: Cell viability, trypan blue exclusion. The assay is classed as cell-based. The note with it: Homo sapiens, PBMC; 48 h of treatment; proliferating, PHA-stimulated; read-out: IC50 ± SD, cell viability, PHA_PBMCs. As to the method:
as §1, §2, §3

A further assay deals with T2, Pim2 kinase (h) (Homo sapiens, UniProt Q9P1W9).
T2 construct: purchased Eurofins Cerep
Kind of assay: Kinase panel (Cerep). The class given is biochemical. Particulars: read-out: % inhibition at 10 µM by MC3353, Pim2 kinase (h), ATP 3 μM. As to the method:
(§4) The test compound, reference compound or water (control) were mixed with the enzyme (for the exact amount see table below) in the appropriate buffer. Thereafter, the reaction was initiated by adding the required amount of the appropriate substrate and of ATP, and the mixture is incubated at room temperature (variable reaction time, see table below). For control basal measurements, the enzyme was omitted from the reaction mixture. Following incubation, the reaction was stopped by adding 13 mM EDTA. After 5 min, the proper antibody labelled with europium chelate was added. After 60 more min, the fluorescence transfer was measured at λex=337 nm, λem=620 nm and λem=665 nm using a microplate reader (Envision, Perkin Elmer). The enzyme activity was determined by dividing the signal measured at 665 nm by that measured at 620 nm (ratio). The results are expressed as a percent inhibition of the control enzyme activity.

A further assay deals with T3, IRK (h) (InsR) (Homo sapiens, UniProt P06213).
T3 construct: purchased Eurofins Cerep
The assay can be described thus: Kinase panel (Cerep). The note with it: read-out: % inhibition at 10 µM by MC3353, IRK (h) (InsR), ATP 30 μM. The assay is classed as biochemical. As for the experimental part: as §4

The next assay concerns the target T4, c-Met kinase (h) (Homo sapiens, UniProt P08581).
T4 construct: purchased Eurofins Cerep
Kind of assay: Kinase panel (Cerep). The assay is classed as biochemical. The note with it: read-out: % inhibition at 10 µM by MC3353, c-Met kinase (h), ATP 10 μM. As for the experimental part: as §4

T1 sequence (P26358 whole entry): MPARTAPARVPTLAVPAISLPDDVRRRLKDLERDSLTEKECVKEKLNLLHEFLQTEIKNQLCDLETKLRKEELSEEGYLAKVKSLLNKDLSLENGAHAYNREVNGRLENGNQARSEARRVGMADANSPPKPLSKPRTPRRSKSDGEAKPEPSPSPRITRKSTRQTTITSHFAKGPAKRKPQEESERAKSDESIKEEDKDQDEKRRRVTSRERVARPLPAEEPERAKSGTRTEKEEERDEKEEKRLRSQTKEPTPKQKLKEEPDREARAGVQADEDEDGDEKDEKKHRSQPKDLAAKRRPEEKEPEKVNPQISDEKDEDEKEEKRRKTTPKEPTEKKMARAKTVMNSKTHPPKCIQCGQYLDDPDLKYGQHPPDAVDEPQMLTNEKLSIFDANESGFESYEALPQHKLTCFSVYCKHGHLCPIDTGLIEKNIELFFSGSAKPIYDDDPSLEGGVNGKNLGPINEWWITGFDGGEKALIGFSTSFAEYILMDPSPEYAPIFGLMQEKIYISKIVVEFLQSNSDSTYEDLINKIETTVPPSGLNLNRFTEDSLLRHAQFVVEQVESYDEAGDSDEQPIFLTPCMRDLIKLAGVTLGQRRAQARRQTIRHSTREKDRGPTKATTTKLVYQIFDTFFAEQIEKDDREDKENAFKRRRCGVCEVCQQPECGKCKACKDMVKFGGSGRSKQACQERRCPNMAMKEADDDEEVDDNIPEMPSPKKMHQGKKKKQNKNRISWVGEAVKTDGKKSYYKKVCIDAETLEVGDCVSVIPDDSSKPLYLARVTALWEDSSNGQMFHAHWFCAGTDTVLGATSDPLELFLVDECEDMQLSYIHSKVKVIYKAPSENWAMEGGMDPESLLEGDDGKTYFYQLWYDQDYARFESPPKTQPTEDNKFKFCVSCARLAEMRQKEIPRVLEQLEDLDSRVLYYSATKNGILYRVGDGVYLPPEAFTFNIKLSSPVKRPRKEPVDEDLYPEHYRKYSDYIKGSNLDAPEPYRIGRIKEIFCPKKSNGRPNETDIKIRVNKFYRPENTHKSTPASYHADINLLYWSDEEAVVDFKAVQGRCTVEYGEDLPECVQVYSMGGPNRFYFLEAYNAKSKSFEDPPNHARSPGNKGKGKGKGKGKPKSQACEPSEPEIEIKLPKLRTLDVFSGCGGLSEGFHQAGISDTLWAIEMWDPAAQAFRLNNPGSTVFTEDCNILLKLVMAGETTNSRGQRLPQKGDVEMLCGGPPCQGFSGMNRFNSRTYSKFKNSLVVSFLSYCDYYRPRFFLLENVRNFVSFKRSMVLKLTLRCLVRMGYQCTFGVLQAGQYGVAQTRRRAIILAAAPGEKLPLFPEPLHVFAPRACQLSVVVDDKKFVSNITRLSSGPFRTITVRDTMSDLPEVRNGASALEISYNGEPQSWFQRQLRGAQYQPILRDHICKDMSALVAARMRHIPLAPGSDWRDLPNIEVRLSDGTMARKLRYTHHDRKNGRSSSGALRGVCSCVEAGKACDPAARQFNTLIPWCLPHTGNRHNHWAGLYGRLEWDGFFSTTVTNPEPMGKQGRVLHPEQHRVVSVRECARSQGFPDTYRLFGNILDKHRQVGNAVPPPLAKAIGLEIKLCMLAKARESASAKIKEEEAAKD
T3 sequence (P06213 28-1382): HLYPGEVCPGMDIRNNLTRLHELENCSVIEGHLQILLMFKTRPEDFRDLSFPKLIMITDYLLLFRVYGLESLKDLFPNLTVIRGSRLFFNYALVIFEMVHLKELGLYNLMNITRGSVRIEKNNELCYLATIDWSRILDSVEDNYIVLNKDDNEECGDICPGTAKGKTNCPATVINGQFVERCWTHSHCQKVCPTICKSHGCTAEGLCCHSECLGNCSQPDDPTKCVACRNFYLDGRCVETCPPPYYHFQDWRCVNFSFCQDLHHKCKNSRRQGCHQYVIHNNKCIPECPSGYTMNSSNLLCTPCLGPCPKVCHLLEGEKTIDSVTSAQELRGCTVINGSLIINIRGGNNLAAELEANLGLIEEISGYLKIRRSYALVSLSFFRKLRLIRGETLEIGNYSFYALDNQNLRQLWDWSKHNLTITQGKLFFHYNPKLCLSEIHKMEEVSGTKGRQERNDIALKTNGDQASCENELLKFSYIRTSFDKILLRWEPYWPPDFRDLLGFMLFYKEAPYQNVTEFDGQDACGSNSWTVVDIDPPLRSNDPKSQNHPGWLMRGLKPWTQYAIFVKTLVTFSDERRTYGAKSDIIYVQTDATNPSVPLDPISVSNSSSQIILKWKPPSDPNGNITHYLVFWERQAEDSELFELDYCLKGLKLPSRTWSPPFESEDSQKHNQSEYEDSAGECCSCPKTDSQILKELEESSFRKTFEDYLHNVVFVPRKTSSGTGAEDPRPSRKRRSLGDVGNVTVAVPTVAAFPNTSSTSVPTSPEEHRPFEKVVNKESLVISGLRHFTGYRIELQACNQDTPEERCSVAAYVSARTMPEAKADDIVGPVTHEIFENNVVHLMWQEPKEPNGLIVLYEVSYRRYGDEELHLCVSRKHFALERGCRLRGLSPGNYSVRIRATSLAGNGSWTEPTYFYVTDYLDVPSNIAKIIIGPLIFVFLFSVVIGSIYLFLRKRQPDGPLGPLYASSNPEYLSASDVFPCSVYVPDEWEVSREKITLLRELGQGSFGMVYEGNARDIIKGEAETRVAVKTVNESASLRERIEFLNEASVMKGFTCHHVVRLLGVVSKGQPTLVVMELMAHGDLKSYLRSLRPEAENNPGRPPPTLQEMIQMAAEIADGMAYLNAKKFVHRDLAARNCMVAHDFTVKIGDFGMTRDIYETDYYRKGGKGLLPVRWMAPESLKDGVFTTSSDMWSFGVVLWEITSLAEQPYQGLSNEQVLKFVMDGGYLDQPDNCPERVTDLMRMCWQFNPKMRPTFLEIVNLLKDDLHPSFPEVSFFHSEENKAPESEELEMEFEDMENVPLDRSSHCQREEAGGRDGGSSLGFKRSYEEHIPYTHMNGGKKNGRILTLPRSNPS
T4 sequence (P08581 25-1390): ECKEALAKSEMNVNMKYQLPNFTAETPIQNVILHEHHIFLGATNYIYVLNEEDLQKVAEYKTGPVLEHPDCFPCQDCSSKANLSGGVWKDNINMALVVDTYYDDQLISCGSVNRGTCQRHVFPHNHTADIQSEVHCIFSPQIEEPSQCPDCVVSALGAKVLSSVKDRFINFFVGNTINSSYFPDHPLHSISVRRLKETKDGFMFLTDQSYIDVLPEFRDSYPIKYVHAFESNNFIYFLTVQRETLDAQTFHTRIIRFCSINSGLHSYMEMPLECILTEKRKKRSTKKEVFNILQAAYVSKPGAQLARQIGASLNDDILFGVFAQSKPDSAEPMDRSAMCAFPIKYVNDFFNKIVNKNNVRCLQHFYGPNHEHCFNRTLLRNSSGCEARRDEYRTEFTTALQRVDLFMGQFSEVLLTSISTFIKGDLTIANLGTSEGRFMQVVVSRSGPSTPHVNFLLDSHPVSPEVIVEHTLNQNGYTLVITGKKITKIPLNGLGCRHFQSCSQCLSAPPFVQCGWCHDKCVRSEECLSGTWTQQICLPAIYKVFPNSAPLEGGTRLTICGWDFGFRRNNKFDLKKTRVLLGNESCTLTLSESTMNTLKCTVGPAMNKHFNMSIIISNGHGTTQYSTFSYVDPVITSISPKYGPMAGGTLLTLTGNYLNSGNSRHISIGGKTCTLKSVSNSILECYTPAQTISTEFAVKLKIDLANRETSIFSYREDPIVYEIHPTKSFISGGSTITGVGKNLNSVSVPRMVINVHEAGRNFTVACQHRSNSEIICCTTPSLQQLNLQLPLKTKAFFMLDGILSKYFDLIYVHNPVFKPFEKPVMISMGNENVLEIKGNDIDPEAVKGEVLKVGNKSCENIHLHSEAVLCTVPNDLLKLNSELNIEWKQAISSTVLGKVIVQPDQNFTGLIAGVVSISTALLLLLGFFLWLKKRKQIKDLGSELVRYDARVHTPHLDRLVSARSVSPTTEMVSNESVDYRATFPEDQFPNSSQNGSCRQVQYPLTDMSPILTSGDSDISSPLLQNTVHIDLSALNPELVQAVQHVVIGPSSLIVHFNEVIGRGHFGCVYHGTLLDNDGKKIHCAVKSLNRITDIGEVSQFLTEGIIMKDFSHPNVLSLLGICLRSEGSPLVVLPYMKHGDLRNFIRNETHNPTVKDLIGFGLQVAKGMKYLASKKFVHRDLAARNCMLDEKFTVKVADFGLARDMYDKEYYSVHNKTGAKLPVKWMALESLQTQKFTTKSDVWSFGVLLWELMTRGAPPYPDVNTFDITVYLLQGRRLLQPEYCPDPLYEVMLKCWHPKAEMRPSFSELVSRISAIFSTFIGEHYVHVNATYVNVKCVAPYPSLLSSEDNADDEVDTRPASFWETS
T2 sequence (Q9P1W9 whole entry): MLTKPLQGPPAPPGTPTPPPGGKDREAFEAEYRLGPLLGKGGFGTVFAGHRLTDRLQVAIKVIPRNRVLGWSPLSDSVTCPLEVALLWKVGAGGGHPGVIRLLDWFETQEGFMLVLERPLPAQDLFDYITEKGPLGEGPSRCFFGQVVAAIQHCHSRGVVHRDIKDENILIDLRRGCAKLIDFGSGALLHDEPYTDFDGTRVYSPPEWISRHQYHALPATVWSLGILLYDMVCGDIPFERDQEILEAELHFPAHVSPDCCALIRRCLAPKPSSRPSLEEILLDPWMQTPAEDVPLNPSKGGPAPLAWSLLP

With `O=C(Nc1ccc(NC(=O)c2ccc(Nc3ccnc4ccccc34)cc2)cc1)OCc1ccccc1` [MC3353, Benzyl (4-(4-(quinolin-4-ylamino)benzamido)phenyl)carbamate], the EC50 at human DNMT1 (radioactivity assay, at least two independent experiments, read-out: EC50 ± SD, hDNMT1) stood at 67 ± 4 µM. The “fold less effective than SGI-1027 against hDNMT1” value at human DNMT1 (ratio of EC50 values) is given as 5.6 fold. For the same compound, at human DNMT1 (ratio of EC50 values), the “fold more potent than RG-108 against hDNMT1” value was 6 fold. Further, in assay [1], the “E-cadherin protein expression (western blot, densitometry), PC-3” value is recorded as “significantly induced E-cadherin expression”. The half-maximal inhibitory concentration (IC50) in assay [2] came out at 8.9 ± 4.2 µM; in assay [3], 4.6 ± 0.5 µM. Besides, the inhibition at 10 µM is 20% at Pim2 kinase (h), 38% at IRK (h) (InsR) and -116% on c-Met kinase (h).

The term EC50 denotes the concentration at which the effect is half-maximal. As usually defined, the IC50 is the point on the concentration scale where inhibition reaches its midpoint. The term inhibition denotes the change of the read-out against control, counted positive when it falls.
